According to publication PMC3264873 (Pharmaceutical Research, 2011):
Starred links: 1 amine or outer side, 2 acyl side, 3 side chain; linkers in the order of their positions; H or OH if unused. Positions of bridges follow the written chain, without caps; N, C: chain ends. Non-standard residues stand in square brackets, D forms with d. Residues, ends and D or L forms follow the SMILES beside them. Trp(2-yl) = O=C([C@H](Cc1c([*:3])[nH]c2ccccc12)N[*:1])[*:2]; Leu(4R-OH,5-OH) = C[C@](O)(CO)C[C@H](N)C(=O)O; cisHyp = O=C(O)[C@@H]1C[C@H](O)CN1

Target: T1, OATP1B1 (Homo sapiens, UniProt Q9Y6L6)
T1 sequence (Q9Y6L6 1-691): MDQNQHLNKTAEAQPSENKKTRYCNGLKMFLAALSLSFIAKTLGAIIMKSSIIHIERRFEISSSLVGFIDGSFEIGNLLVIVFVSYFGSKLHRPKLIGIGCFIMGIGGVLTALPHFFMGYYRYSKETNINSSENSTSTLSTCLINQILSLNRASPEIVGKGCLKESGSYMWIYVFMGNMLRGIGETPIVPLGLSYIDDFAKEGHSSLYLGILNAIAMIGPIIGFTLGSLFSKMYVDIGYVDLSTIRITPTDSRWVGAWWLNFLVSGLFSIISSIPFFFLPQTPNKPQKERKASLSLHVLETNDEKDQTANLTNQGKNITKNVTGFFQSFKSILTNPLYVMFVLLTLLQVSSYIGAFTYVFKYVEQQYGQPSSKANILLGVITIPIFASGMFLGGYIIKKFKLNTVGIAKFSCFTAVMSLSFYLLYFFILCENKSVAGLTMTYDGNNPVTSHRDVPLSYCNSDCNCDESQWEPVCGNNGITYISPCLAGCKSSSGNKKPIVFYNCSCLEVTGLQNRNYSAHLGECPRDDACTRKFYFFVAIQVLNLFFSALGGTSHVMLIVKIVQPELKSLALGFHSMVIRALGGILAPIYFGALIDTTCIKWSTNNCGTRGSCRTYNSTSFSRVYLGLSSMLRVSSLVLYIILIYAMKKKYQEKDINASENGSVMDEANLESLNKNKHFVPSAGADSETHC
Experiment: Screening for inhibition of OATP1B1-mediated estradiol-17β-glucuronide uptake
Conditions: for Classification as OATP1B1 inhibitor (more than 50% inhibition of E17βG uptake): 20 μM test compound; for inhibition at 5 min, 100 µM: human

Row | Classification as OATP1B1 inhibitor (more than 50% inhibition of E17βG uptake) | inhibition at 5 min, 100 µM (pH 7.4, Inhibition of E17βG uptake, 100 μM test compound (data not shown)) [%] | Molecule | inhibition at 5 min, 100 µM (pH 7.4) [%]
1 | inhibitors |  | CNC(=O)c1cccnc1 [N-methylnicotinamide] | 
2 | inhibitors |  | COC(=O)C1=C(C)NC(C)=C(C(=O)OCCN(C)Cc2ccccc2)C1c1cccc([N+](=O)[O-])c1 (stereo not shown) [Nicardipine] | 
3 | classified as OATP1B1 inhibitors |  | CCOc1cc(CC(=O)N[C@@H](CC(C)C)c2ccccc2N2CCCCC2)ccc1C(=O)O [Repaglinide] | 
4 | inhibitors |  | CC(=O)S[C@@H]1CC2=CC(=O)CC[C@]2(C)[C@H]2CC[C@@]3(C)[C@@H](CC[C@@]34CCC(=O)O4)[C@H]12 [Spironolactone] | 
5 | inhibitors |  | O=C(O)c1cc(/N=N/c2ccc(S(=O)(=O)Nc3ccccn3)cc2)ccc1O [Sulfasalazine] | 
6 | inhibitors |  | C[C@H](CCC(=O)NCCS(=O)(=O)O)[C@H]1CC[C@H]2[C@@H]3[C@H](O)C[C@@H]4C[C@H](O)CC[C@]4(C)[C@H]3CC[C@]12C [Taurochenodeoxycholate] | 
7 | inhibitors |  | C[C@H](CCC(=O)NCCS(=O)(=O)O)[C@H]1CC[C@H]2[C@@H]3CC[C@@H]4C[C@H](O)CC[C@]4(C)[C@H]3C[C@H](O)[C@]12C [Taurodeoxycholate] | 
8 | inhibitors |  | CC[C@]1(O)C[C@@H]2CN(CCc3c([nH]c4ccccc34)[C@@](C(=O)OC)(c3cc4c(cc3OC)N(C)[C@H]3[C@@](O)(C(=O)OC)[C@H](OC(C)=O)[C@]5(CC)C=CCN6CC[C@]43[C@@H]65)C2)C1 [Vinblastine] | 

More lines, now with the values behind:

Row | Molecule | Classification as OATP1B1 inhibitor (more than 50% inhibition of E17βG uptake) | inhibition at 5 min, 100 µM (pH 7.4, Inhibition of E17βG uptake, 100 μM test compound (data not shown)) [%] | inhibition at 5 min, 100 µM (pH 7.4) [%]
9 | C[C@@H]1[C@H](O)[C@@H](C)/C=C/C=C/CC/C=C/C=C/C=C/C=C/C(O[C@H]2O[C@H](C)[C@@H](O)[C@H](N)[C@@H]2O)CC2O[C@](O)(CC(O)C(O)CCC(O)CC(O)CC(O)CC(=O)O[C@H]1C)CC(O)C2C(=O)O (stereo partly shown) [Nystatin] | inhibitors |  | 
10 | CC1(C)S[C@@H]2[C@H](NC(=O)Cc3ccccc3)C(=O)N2[C@H]1C(=O)O [Penicillin G] |  | 32 | 
11 | C[C@@H]1NC(=O)[C@H](C[C@@](C)(O)CO)NC(=O)[C@@H]2Cc3c([nH]c4ccccc34)SC[C@H](NC(=O)[C@@H]([C@H](C)O)NC1=O)C(=O)N1C[C@@H](O)C[C@H]1C(=O)N[C@@H](C)C(=O)N2 [Phalloidin] (cyclo(A[dT]C[cisHyp]A[Trp(2-yl)][Leu(4R-OH,5-OH)]); thioether 3-6) | not identified as inhibitors |  | 49
12 | COC(=O)[C@H]1[C@H]2C[C@@H]3c4[nH]c5cc(OC)ccc5c4CCN3C[C@H]2C[C@@H](OC(=O)c2cc(OC)c(OC)c(OC)c2)[C@@H]1OC [Reserpine] | inhibitors |  | 
13 | CN(CCOc1ccc(CC2SC(=O)NC2=O)cc1)c1ccccn1 (stereo not shown) [Rosiglitazone] | classified as OATP1B1 inhibitors |  | 
14 | CCC[C@@]1(CCc2ccccc2)CC(O)=C([C@H](CC)c2cccc(NS(=O)(=O)c3ccc(C(F)(F)F)cn3)c2)C(=O)O1 [Tipranavir] | inhibitors |  | 
15 | Ivermectin | inhibitors |  | 
